Entries after “also recorded” stand apart in the source; their conditions may differ.
Assays:
[1] = target: TTR/Aβ(1–42) complex (Homo sapiens, UniProt P02766); experiment: ITC, ternary complex: [TTR + stabilizer] titrated with Aβ; type: binding; conditions: compared with TTR/Aβ(1–42) without stabilizer
[2] = target: TTR/Aβ(12–28) complex (Homo sapiens, UniProt P02766); experiment: as above; type: binding; conditions: compared with TTR + Aβ(12–28) without stabilizer
[3] = tested on: mice model of AD; conditions: in vivo administration; cited from earlier work
[4] = target: TTR (Homo sapiens, UniProt P02766); experiment: ITC, binary complex TTR + Aβ peptide; type: binding; conditions: thermograms of binary complexes; HEPES/glycine pH 7.4, 5% DMSO, 25 °C

chaperoning effect on the TTR/Aβ(1–42) interaction (in words) [1] | interaction with TTR by ITC (in words) [4] | Molecule | further results
chaperoning effect could not be observed | – | O=C(O)c1cc(-c2ccc(F)cc2F)ccc1O [Diflunisal, 5-(2,4-difluorophenyl)-2-hydroxy-benzoic acid] | effect of the stabilizer on the TTR/Aβ(12–28) complex (in words) ([2]; listed as diflunisal (1)): do not enhance the TTR/Aβ interaction; also recorded: negligible
cooperative effect | – | O=C(O)c1cc(-c2ccc(F)cc2F)cc(I)c1O [IDIF, 2',4'-difluoro-4-hydroxy-5-iodo-1,1'-biphenyl-3-carboxylic acid] | effect of the stabilizer on the TTR/Aβ(12–28) complex (in words) [2]: stabilizing; effect in AD mice (brain Aβ, cognition) [3]: decrease in brain Aβ levels and deposition
– | – | O=C(O)c1ccc2nc(-c3cc(Cl)cc(Cl)c3)oc2c1 [Tafamidis, 2-(3,5-dichlorophenyl)-1,3-benzoxazole-6-carboxylic acid] | chaperoning effect on the TTR/Aβ(1–42) interaction (in words) ([1]; listed as Tafamidis (2)): negligible effect; also recorded: chaperoning effect could not be observed; also recorded: not detected; effect of the stabilizer on the TTR/Aβ(12–28) complex (in words) ([2]; listed as Tafamidis (2)): do not enhance the TTR/Aβ interaction; also recorded: negligible
– | no significant interaction | DAEFR HDSGY E [Aβ(1–11) (5)] | –
– | no significant interaction | EDVG SNKGA IIGLM [Aβ(25–35) (8)] | –
– | very low enthalpy change | Y EVHHQ KLVFF [Aβ(10–20) (6)] | –

From PMC7115756 (Journal of Medicinal Chemistry, 2020)
